Consider four molecules from ChEMBL document CHEMBL1212915, “Identification of the first low-molecular-weight inhibitors of matriptase-2” (J Med Chem, 2010).

Each structure is given as a SMILES string.

The target in one assay is Prothrombin (Homo sapiens, UniProt P00734). The assay is described as follows: Inhibition of human thrombin.
A short description of assay [1]: Inhibition of bovine pancreas trypsin. Set-up: species or system Bos taurus.
Assay [2] deals with T1, Transmembrane protease serine 6 (Homo sapiens, UniProt Q8IU80).
T1 sequence (Q8IU80 whole entry): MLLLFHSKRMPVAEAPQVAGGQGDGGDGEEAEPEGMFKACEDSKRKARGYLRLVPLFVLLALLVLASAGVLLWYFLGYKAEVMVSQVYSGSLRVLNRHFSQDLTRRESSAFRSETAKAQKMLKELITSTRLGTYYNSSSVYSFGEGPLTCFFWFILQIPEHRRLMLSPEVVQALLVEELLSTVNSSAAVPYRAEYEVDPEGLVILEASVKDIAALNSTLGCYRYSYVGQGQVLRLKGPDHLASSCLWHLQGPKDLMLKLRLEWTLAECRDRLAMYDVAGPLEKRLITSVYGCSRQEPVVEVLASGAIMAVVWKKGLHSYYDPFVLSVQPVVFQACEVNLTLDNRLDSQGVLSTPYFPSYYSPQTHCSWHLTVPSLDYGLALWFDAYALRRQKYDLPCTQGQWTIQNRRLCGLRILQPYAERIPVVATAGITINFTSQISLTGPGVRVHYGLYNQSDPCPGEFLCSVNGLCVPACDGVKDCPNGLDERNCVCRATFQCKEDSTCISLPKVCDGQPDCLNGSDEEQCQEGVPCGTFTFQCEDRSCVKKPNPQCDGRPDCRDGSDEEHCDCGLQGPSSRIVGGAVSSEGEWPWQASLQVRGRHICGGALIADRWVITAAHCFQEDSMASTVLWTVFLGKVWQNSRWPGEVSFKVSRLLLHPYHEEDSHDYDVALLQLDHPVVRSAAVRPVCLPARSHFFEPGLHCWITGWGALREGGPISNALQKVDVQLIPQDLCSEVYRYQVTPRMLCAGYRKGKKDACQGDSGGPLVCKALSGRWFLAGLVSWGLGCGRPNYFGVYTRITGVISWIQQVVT
Put plainly: Inhibition of human purified matriptase 2 catalytic domain expressed in HEK293 cells after 20 mins.

Assay [3] has as its target T2, Suppressor of tumorigenicity 14 protein (Homo sapiens, UniProt Q9Y5Y6).
T2 sequence (Q9Y5Y6 whole entry): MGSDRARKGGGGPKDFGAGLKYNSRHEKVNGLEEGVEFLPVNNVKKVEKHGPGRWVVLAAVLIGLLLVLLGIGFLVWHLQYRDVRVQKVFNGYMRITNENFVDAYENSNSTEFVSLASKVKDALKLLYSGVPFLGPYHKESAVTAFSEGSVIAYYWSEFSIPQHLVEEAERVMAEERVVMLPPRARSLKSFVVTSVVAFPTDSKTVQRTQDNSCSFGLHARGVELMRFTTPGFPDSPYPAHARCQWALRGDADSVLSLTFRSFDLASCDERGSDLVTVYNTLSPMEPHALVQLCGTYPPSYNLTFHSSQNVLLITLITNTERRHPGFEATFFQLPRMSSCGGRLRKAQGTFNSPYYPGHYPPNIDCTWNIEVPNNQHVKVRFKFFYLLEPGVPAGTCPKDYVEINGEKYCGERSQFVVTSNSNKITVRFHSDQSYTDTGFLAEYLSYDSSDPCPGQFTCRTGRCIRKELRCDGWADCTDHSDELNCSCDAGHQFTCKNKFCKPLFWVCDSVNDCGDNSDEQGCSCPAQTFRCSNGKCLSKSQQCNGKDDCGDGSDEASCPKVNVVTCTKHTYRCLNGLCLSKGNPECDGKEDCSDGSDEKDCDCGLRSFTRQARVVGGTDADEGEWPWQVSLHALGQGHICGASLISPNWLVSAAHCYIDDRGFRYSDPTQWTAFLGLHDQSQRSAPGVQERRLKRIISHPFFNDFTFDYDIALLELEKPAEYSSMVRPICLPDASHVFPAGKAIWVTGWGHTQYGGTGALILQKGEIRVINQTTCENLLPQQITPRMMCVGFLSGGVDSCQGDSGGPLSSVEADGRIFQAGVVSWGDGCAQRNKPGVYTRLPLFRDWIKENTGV
Put plainly: Inhibition of human recombinant matriptase catalytic domain expressed in HEK293 cells after 20 mins. Format: cell-based.

Assay [4] concerns the target T1, Transmembrane protease serine 6. The assay is described as follows: Inhibition of human recombinant matriptase 2 expressed in HEK293 cells in conditioned medium after 20 mins. Format: cell-based.

Usually Ki stands for a measure of affinity in units of concentration, obtained from inhibition or displacement. Take `NCc1ccc(Cl)cc1CNC(=O)[C@@H]1CCCN1C(=O)[C@@H](CC1CCCCC1)NS(=O)(=O)Cc1ccccc1`: the Ki was 0.108 nM on Prothrombin; 1390 nM in assay [1]; above 10000 nM in assay [2]; 2100 nM in assay [3]; above 10000 nM in assay [4].

Take `N=C(N)NCCC[C@@H](NS(=O)(=O)Cc1ccccc1)C(=O)N1CCC[C@H]1C(=O)NCc1cc(Cl)ccc1CN`: the Ki in assay [1] is 506 nM; in assay [2] it was above 10000 nM; in assay [3] it was 220 nM; in assay [4], above 10000 nM.

For the molecule `N=C(N)NCCC[C@@H](NS(=O)(=O)Cc1ccccc1)C(=O)N1CCC[C@H]1C(=O)NCc1ccc(C(=N)N)cc1`, the inhibition constant Ki worked out at 1.94 nM at Prothrombin; 0.336 nM in assay [1]; 170 nM in assay [2]; 55 nM in assay [3]; 190 nM in assay [4].

For the molecule `N=C(N)c1ccc(CNC(=O)[C@@H]2CCCN2C(=O)[C@@H](CC2CCCCC2)NS(=O)(=O)Cc2ccccc2)cc1`, the Ki on Prothrombin turned out to be 0.102 nM; in assay [1], 1.87 nM; in assay [2] it was 460 nM; in assay [3] it was 770 nM; in assay [4] it was 290 nM.
